# In patent US20110237533A1, “NOVEL POLYPHENOL COMPOUND” (priority 2008, published 2011):
# Read-outs that look alike come from different tables or passages of the source.
# Target: T1, pancreatic lipase derived from swine (Sus scrofa, UniProt P00591)
# T1 construct: purchased Sigma Ltd
# T1 sequence (P00591 1-450): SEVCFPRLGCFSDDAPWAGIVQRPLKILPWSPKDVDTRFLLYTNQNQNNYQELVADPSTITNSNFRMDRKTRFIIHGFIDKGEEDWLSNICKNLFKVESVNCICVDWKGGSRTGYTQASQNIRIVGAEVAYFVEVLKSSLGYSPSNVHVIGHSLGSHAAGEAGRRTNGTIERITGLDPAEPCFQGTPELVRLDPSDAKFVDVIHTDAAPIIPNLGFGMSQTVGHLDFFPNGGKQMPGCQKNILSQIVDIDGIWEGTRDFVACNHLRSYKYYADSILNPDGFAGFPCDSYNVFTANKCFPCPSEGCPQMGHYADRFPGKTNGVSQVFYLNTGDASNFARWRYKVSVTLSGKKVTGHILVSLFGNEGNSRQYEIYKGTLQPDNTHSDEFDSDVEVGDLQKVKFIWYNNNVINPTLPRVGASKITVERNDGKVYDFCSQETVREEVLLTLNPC
# Assay: lipase inhibitory test (4-MUO substrate, fluorescence)
# Type: biochemical
# Conditions: read-out: lipase inhibitory activity (%)
"inhibition at 250 µM (sample concentration 250 μM, 4-MUO substrate, 37° C., 30 minutes) [%]",SMILES,inhibition at 250 µM [%]
50,O=C(O)c1cc(O)c(O)c(O)c1 [gallic acid],
,O=c1c(O)c(-c2ccc(O)c(O)c2)oc2cc(O)cc(O)c12 [quercetin],64.3
